Experiment [1] has as its system C. elegans VC2010 (wild type). Description: WormScan screen of C. elegans growth, fecundity, motility and mortality. The experiment is classed as in vivo, Caenorhabditis elegans. Further details: normalized WormScan score: dose or concentration left out as unconfirmed. Here is the method:
(§1) All compound libraries were stored in 96-well plates, with 80 drugs per plate (columns 1 and 12 left empty). A BioGrid BG600 pinning robot (Digilab / BioRobotics) was used for compound transfer. The robot uses a 96-pin tool (0.7 mm dia.) to transfer a nominal volume of 340 nL of compound. For retesting, compounds were hand pinned from the original library plates to assay plates using a single 0.7 mm dia. pin. The assay plates were 96-well clear flat-bottom microplates containing 2% χ1666 E.coli bacteria in 0.5X Liquid Nematode Growth Media (LNGM) plus cholesterol (Bacteria were mass-grown in rich media, and harvested by centrifugation to produce a thick paste of bacterial cells that was kept frozen at -20°C. Cells were resuspended at 2% W/V in 0.5X LNGM to produce liquid worm food). Using a COPAS Biosort (Union Biometrica), two L4 to young adult stage VC2010 worms were added to each well of the plate in a final volume of 45 μL. After five days of exposure to the compounds, the plates were scanned and the data analyzed. A five day time period was chosen to be able to observe effects over all stages of the life cycle and through at least one round of replication. The initial proof-of-principle primary screen was performed manually using a dissecting microscope. Phenotypes scored included decreased motility, reduced brood size, and/or death as described previously. For high throughput screening of the Chembridge and Maybridge compound libraries we used the program WormScan, which was adapted for screening 96-well flat-bottom LNGM plates. Using WormScan it was possible to screen four 96-well plates at a time. Plates were scanned twice, at a resolution of 1200 dots per inch, 16-bit grayscale, producing a jpeg image. The light intensity produced by the scanner was sufficient to cause negative phototaxis equivalent to a physical stimulus for mortality determination. The time required to scan four 96-well plates using an Epson Perfection V700 Photo Scanner was less than ten minutes. The time to screen a single plate was less than 1.2 minutes, with less than ten seconds between scans.
(§2) WormScan was used to screen for the same phenotypes as in the manual screen (reduced brood size, reduced behavior/motility response and increased mortality). Two sequential scans for each 96-well plate were aligned to a reference region of interest (ROI). Image analysis was based on a difference image score calculated for each ROI. The difference image score (WormScan score) was normalized using a “percent of control” method to derive a normalized WormScan score. […] Wild-type growth in 1% DMSO (Fig 1A) results in a normalized WormScan score of 100. Exposure to 50 nM ivermectin gives a score of 0 (Fig 1C), and complete absence of worms gives a score of 0 (Fig 1D). For the primary screen the WormScan score was calculated using custom macro scripts written for Fiji. For secondary screening and any subsequent studies the WormScan score was calculated using a standalone Java program (See supplemental). Probit regression of mortality was calculated using Mathematica 8.0.

The subject of experiment [2] is C. elegans VC3631 (mev-1 gk3613, D19 resistant). Description: IC50 on CID 2747322 resistant C. elegans strain VC3631. The experiment is classed as in vivo, Caenorhabditis elegans. The following applies: 5 days exposure, 2 L4 per well, three biological replicates. Here is the method: as §1, §2
(§3) A standard ethyl methanesulfonate (EMS) mutagenesis protocol was carried out using VC2010 in order to generate mutants resistant to CID 2747322 exposure. First larval stage (L1) F2 progeny of mutagenized P0s were exposed to CID 2747322 at 200 μM in liquid worm food in 24-well tissue culture plates for five days at room temperature, and two independently isolated resistant lines (VC3614 and VC3615) were identified. […]

Experiment [3] relates to C. elegans RB2119 (acr-23(ok2804), monepantel-resistant). The experiment can be described thus: IC50 on amino-acetonitrile resistant C. elegans strain. The experiment is classed as in vivo, Caenorhabditis elegans. The settings on record: 5 days exposure, 2 L4 per well, three biological replicates, read-out: IC50, strain RB2119 (amino-acetonitriles).
For experiment [4], the system named is C. elegans CB193 (unc-29(e193), levamisole resistant). The experiment can be described thus: IC50 on levamisole resistant C. elegans strain. The settings on record: 5 days exposure, 2 L4 per well, three biological replicates. The experiment is classed as in vivo, Caenorhabditis elegans.
Experiment [5] concerns C. elegans VC3635 (pink-1 gk3615, D19 resistant). The experiment can be described thus: IC50 on CID 2747322 resistant C. elegans strain VC3635. The experiment is classed as in vivo, Caenorhabditis elegans. The following applies: 5 days exposure, 2 L4 per well, three biological replicates. Here is the method:
as §1, §2, §3

For experiment [6], the system named is C. elegans CB3474 (ben-1(e1880), benomyl resistant). The experiment can be described thus: IC50 on benzimidazole resistant C. elegans strain. The experiment is classed as in vivo, Caenorhabditis elegans. The settings on record: 5 days exposure, 2 L4 per well, three biological replicates.
In experiment [7] the test system is C. elegans DA1316 (avr-14(ad1302); avr-15(vu227); glc-1(pk54), ivermectin resistant). The experiment can be described thus: IC50 on ivermectin resistant C. elegans strain. The experiment is classed as in vivo, Caenorhabditis elegans. The settings on record: 5 days exposure, 2 L4 per well, three biological replicates.
Experiment [8] has as its system Human embryonic kidney (HEK293) cells. Description: HEK293 viability, MTT colorimetric assay. The experiment is classed as cell-based. The settings on record: read-out: Mammalian IC50. Here is the method:
Potential anthelmintic compounds identified from primary screening were further tested against mammalian cells and yeast to determine whether they had deleterious effects in those organisms. Human embryonic kidney (HEK293) cells were grown in Dulbecco’s Modified Eagle’s Medium (DMEM; Sigma) containing 5% fetal bovine serum (FBS; Sigma) in 96-well plates tissue culture plates. Compounds were added 24h post-plating at 10, 30, 100, or 300 μM final concentrations. Dimethyl sulfoxide (DMSO) was used as a negative control at 0.1%. Cells were treated for 24 or 48 hours, after which time viability was assessed using a 3-(4,5-dimethylthiazol-2-yl)-2,5-diphenyltetrazolium bromide (MTT) colorimetric assay. Percent viability was determined by comparing treatment values to DMSO control values.

The subject of experiment [9] is S. cerevisiae yeast strain BY4743. Description: Yeast growth rate (OD600) dose titration. The experiment is classed as cell-based. The settings on record: BY4743, YPD, growth rate reduced by 50%. Here is the method:
The S. cerevisiae yeast strain BY4743 (MATa/α his3Δ1/his3Δ1 leu2Δ0/leu2Δ0 LYS2/lys2Δ0 met15Δ0/MET15 ura3Δ0/ura3Δ0) was used for all yeast experiments and was grown using yeast extract peptone dextrose (YPD) media at pH 7 [52]. BY4743 was grown overnight to initial log phase and was then grown with the compound identified in the C. elegans assay. The growth rate was quantified by continuously monitoring the optical density of the liquid yeast growth at OD600. The compound was screened in a dose-titration in YPD as described. The IC50 was the concentration required to reduce the growth rate or Average G value by 50% compared to a vehicle control (2% DMSO).

The test system of experiment [10] is C. elegans VC2010. Description: Manual inspection of growth, brood size, developmental stage and recovery of C. elegans in drug. The experiment is classed as in vivo, Caenorhabditis elegans. The following applies: L1s removed from the drug. Here is the method:
WormScan is a powerful tool to identify compounds with potential effects on the nematode, but it is still necessary to do manual inspection of wells with few animals to determine details of growth, behavior and fecundity. Wild-type worms grown in 90 μM CID 2747322 have brood sizes reduced by 97%. […] All current classes of anthelmintic have greater specificity towards certain life-stages. It is interesting that when removed from the drug L1s will recover and develop, and generally become fertile adults (See S3 Fig).
Supplementary file pntd.0005058.s002.tiff: S2 Fig Developmental stage of inhibition in C. elegans after CID 2747322 exposure. Ten VC2010 L1 stage C. elegans were sorted into a DMSO control well or 90 μM of CID 2747322. Nematodes were removed from the DMSO control or CID 2747322 after 24/48/72 hours and allowed to recover for 30 minutes on standard agar plates. (TIFF) Click here for additional data file.
Supplementary file pntd.0005058.s003.tiff: S3 Fig Development of C. elegans after removel from CID 2747322. Greater than 50 VC2010 L1 stage C. elegans were sorted into a DMSO control well or 90 μM of CID 2747322. Nematodes were removed from DMSO control or CID 2747322 after 2 days of exposure and left to recovery for 24/48/72 hours. (TIFF) Click here for additional data file.

The subject of the next experiment is nematodes. Details: method as in PMID 10924467. The following applies: cited from earlier work.
The next experiment has as its system A. suum complex II. Further details: method as in PMID 26198225. The settings on record: cited from earlier work.
The next experiment concerns porcine complex II. Further details: method as in PMID 26198225. The settings on record: cited from earlier work.
The test system of experiment [11] is C. elegans VC2010. Description: Manual phenotyping pilot screen of 3,584 known compounds (CCBN library). The experiment is classed as in vivo, Caenorhabditis elegans. The following applies: dissecting microscope, positively confirmed drugs of CCBN library.
[12] abbreviates: Caenorhabditis elegans, 120 h, 5 days exposure, 2 L4 per well, three biological replicates, read-out: IC50, strain VC2010 (wild type).
The mark [13] stands for this setting: 5 days exposure, 2 L4 per well, three biological replicates, read-out: IC50, strain VC2010 (wild type).
The mark [14] stands for this setting: C. elegans, 5 days exposure, read-out: Nematode IC50.

Here are results for 13 molecules from paper PMC5068747, “Using C. elegans Forward and Reverse Genetics to Identify New Compounds with Anthelmintic Activity” (PLoS Neglected Tropical Diseases, 2016).

Read-outs that look alike come from different tables or passages of the source.

As for `c1ccc2[nH]cnc2c1` [Benzimidazole], the IC50 in experiment [1] (setting [12]) is 61 µM; in experiment [2] (Caenorhabditis elegans, 120 h) it was 91 µM; in experiment [3] (Caenorhabditis elegans, 120 h), 28 µM; in [4] (Caenorhabditis elegans, 120 h), 113 µM; in experiment [5] (Caenorhabditis elegans, 120 h), 118 µM; in [6] (Caenorhabditis elegans, 120 h) it was above 1000 µM. The same molecule showed an IC50 in [7] (Caenorhabditis elegans, 120 h) of 59 µM.

Consider `FC(F)(F)c1cc(NCc2ccccc2)nc(-c2ccccc2)n1` [CID 796072], for which the IC50 was 7 µM in [1] (setting [13]); 7 µM in [1] (setting [14]); 11 µM in experiment [2]; 2 µM in experiment [3]; 28 µM in experiment [8]; above 1000 µM in [9]. The IC50 in [4] worked out at 3 µM; in experiment [5], 9 µM; in experiment [6], 2 µM; in experiment [7], 8 µM. Besides, in experiment [1] (C. elegans versus mammalian cells, Table 1), the “greater sensitivity in C. elegans than in other organisms (nematode index)” value is on record as “four-fold”.

Consider `Cc1csc2sc(C(=O)CC(=O)C(F)(F)F)c(C)c12` [CID 2743002], for which the IC50 in experiment [1] (setting [14]) is above 500 µM; in [8], 54 µM; in experiment [9], 20 µM.

Regarding `Cc1nn(S(=O)(=O)c2ccccc2)c(C)c1Oc1ccc(Cl)cc1` [CID 2745791], the IC50 was 99 µM in [1] (setting [14]), 54 µM in experiment [8] and above 1000 µM in experiment [9].

`COc1ccc(OCCNC(=O)c2c(F)cccc2Cl)cc1` [CID 2747279]: in [1] (C. elegans, re-pinned, two additional biological replicates), the “anthelmintic activity on retest of the 50 compounds most similar to CID 2747322” value is recorded as “strong anthelmintic activity”. The IC50 in experiment [1] (Caenorhabditis elegans, 120 h, C. elegans, 5 days exposure, read-out: Nematode IC50) is 13 µM; in experiment [8] (Homo sapiens) it was 190 µM; in [9] (Saccharomyces cerevisiae), above 1000 µM.

Turning to `O=C(Nc1ccc(Cl)cc1)Nc1ccc2ncccc2c1` [CID 2823320], the IC50 in experiment [1] (setting [14]) is 40 µM; in experiment [8], 45 µM; in [9], above 1000 µM.

In the case of `Cc1nc2c(c3c1[nH]c1ccccc13)C(=O)CC(C)(C)C2` [CID 3254982], the IC50 in experiment [1] (setting [14]) worked out at 17 µM; in experiment [8], 37 µM; in [9] it was 140 µM.

`C=C(C)C1CC=C(CN(C)C2CCN(C)CC2)CC1` (stereo not shown) [CID 6456299]: the IC50 in [1] (setting [14]) was above 500 µM; in [8], 184 µM; in experiment [9], above 1000 µM.

For `O=C(NCCc1ncc(C(F)(F)F)cc1Cl)c1ccccc1C(F)(F)F` [Fluopyram, reference compound], the IC50 in [1] (Caenorhabditis elegans, 120 h, read-out: Nematode IC50) is 0.05 µM; in [8] (Homo sapiens), 300 µM; in experiment [9] (Saccharomyces cerevisiae) it was above 1000 µM. The “outcome after exposure / removal from drug” value in the experiment on C. elegans VC2010 [10] was “animals are killed”.

Turning to `c1ccc([C@H]2CN3CCSC3=N2)cc1` [Levamisole], the IC50 in [1] (setting [12]) is 4 µM; in experiment [2] (Caenorhabditis elegans, 120 h), 10 µM; in [3] (Caenorhabditis elegans, 120 h) it was 4 µM; in experiment [4] (Caenorhabditis elegans, 120 h), above 250 µM; in experiment [5] (Caenorhabditis elegans, 120 h) it was 6 µM; in experiment [6] (Caenorhabditis elegans, 120 h), 2 µM. Besides, the IC50 in [7] (Caenorhabditis elegans, 120 h) was 8 µM.

As for `CC1(C)SC2C(N)C(=O)N2C1C(=O)O` (stereo not shown) [WACT162], the effect on nematodes entry in the experiment on nematodes is reported as “only reduces growth”.

As to `CC(C)Oc1cccc(NC(=O)c2ccccc2C(F)(F)F)c1` [flutolanil], the IC50 was 0.0245 µM with A. suum complex II and 8.61 µM in the experiment with porcine complex II.

Ivermectin: the “WormScan Score” value in experiment [1] (50 μM, five days exposure, normalized, DMSO control = 100) is listed as 0. Moreover, the IC50 in [1] (setting [13]) was 0.03 µM; in [1] (setting [14]), 0.03 µM; in experiment [2], 0.01 µM; in [3], 0.01 µM; in experiment [8], 300 µM; in experiment [9] it was above 1000 µM. Besides, the IC50 turned out to be 0.01 µM in experiment [4], 0.01 µM in experiment [5], 0.01 µM in experiment [6] and 7 µM in [7]. For the same molecule, the “normalized WormScan score” value in experiment [1] (normalized, DMSO control = 100) turned out to be 0. In the experiment with C. elegans VC2010 [11], the “Worm Reaction in Drug” value is reported as “appears dead/paralyzed no progeny”.
